In patent US6444617B1, “Fused-heterocycle dicarboxylic acid diamide derivatives or salts thereof, herbicide and usage thereof” (Nihon Nohyaku Co., Ltd., priority 1998, dated 2002):

How the values were obtained:
Assay type in all cases: in vivo
soybean plant = experiment: Test Example 4: phytotoxicity to upland crop plants, treatment after emergence; settings: dosage 5 kg/ha, sprayed after emergence, judged 14 days after treatment
From the text: (§1) Herbicidal Effect on Upland Weeds After Emergence Polyethylene-made vats having a size of 10 cm (length)×20 cm (width)×5 cm (height) were filled with soil, sown with seeds of the following noxious upland weeds and with seeds of soybean plant and wheat as upland crop plants, and then covered with soil. The plants were made to grow up until they reached the leaf-stages mentioned below, after which an agent comprising a prescribed concentration of a compound of the present invention (listed in Tables 1 to 14) as active ingredient was sprayed. Fourteen days after the treatment, the herbicidal effect was investigated, from which weed-killing rate was calculated in the same manner as in Test Example 1 and the results were judged. […] Sample weeds, their leaf stages, and leaf stages of soybean plant and wheat were as follows: [table]

wheat = experiment: as above; settings: dosage 5 kg/ha, sprayed after emergence, judged 14 days after treatment
From the text: as §1

soybean plant (So) = experiment: Test Example 3: phytotoxicity to upland crop plants, treatment before emergence; settings: dosage 5 kg/ha
Description: (§2) Herbicidal Effect on Upland Weeds Before Emergence […] Then, a liquid preparation of an agent comprising a prescribed concentration of a compound of the present invention (the compounds listed in Tables 1-14) as active ingredient was sprayed. Fourteen days after the treatment, the herbicidal effect was investigated, from which weed-killing rate was calculated in the same manner as in Test Example 1, and the herbicidal effect was judged. At the same time, phytotoxicity to soybean plant and wheat was investigated and judged according to the criterion mentioned below.

wheat (Wh) = experiment: as above; settings: dosage 5 kg/ha
Description: as §2

[1] = test system: forxtail grass (Alopecurus aequalis var. amurensis Ohwi), Am; experiment: Test Example 4: herbicidal effect on upland weeds after emergence; settings: dosage 5 kg/ha; sprayed after emergence; judged 14 days after treatment
From the text: as §1

[2] = test system: bird's eye speedwell (Veronica persica Poir.), Vp; experiment: as above; settings: dosage 5 kg/ha; sprayed after emergence; judged 14 days after treatment
From the text: as §1

[3] = test system: velvetleaf (Abutilon theophtasti L.), At; experiment: as above; settings: dosage 5 kg/ha; sprayed after emergence; judged 14 days after treatment
From the text: as §1

[4] = test system: cleavers (Galium aparine L.), Ga; experiment: as above; settings: dosage 5 kg/ha; sprayed after emergence; judged 14 days after treatment
From the text: as §1

[5] = test system: cocklebur (Xanthium strumarium L.), Xs; experiment: as above; settings: dosage 5 kg/ha; sprayed after emergence; judged 14 days after treatment
From the text: as §1

[6] = test system: barnyard grass (Echinochloa crus-galli Beauv.), Ec; experiment: as above; settings: dosage 5 kg/ha; sprayed after emergence; judged 14 days after treatment
From the text: as §1

[7] = test system: barnyard grass (Echinochloa crus-galli Beauv.); experiment: Test Example 1: herbicidal effect on paddy field weeds before emergence; settings: Dosage 5 kg/ha
Description: (§3) Test for Herbicidal Effect on Paddy Field Weeds Before Emergence Soil was filled into 1/10000 are pots and brought into a state of paddy field, in which seeds of barnyard grass (Echinochloa crus-galli Beauv.) and bulrush (Scirpus juncoides Roxb.) were made to be before germination. The soil in the pots were treated with a solution containing a predetermined dosage of a chemical agent comprising a compound of the present invention listed in Tables 1 to 14. Twenty one days after the treatment, the herbicidal effect was investigated, the result was compared with that in untreated plot to calculate the weed-controlling rate, and the herbicidal effect was judged according to the following criterion: […]

[8] = test system: bulrush (Scirpus juncoides Roxb.); experiment: as above; settings: Dosage 5 kg/ha
Description: as §3

[9] = test system: forxtail grass (Alopecurus aequalis var. amurensis Ohwi), Am; experiment: Test Example 3: herbicidal effect on upland weeds before emergence; settings: foxtail grass, dosage 5 kg/ha
Description: as §2, with “judged.” for “judged. At the same time, phytotoxicity to soybean plant and wheat was investigated and judged according to the criterion mentioned below.”

[10] = test system: bird's eye speedwell (Veronica persica Poir.), Vp; experiment: as above; settings: dosage 5 kg/ha
Description: as §2, with “judged.” for “judged. At the same time, phytotoxicity to soybean plant and wheat was investigated and judged according to the criterion mentioned below.”

[11] = test system: velvetleaf (Abutilon theophtasti L.), At; experiment: as above; settings: dosage 5 kg/ha
Description: as §2, with “judged.” for “judged. At the same time, phytotoxicity to soybean plant and wheat was investigated and judged according to the criterion mentioned below.”

[12] = test system: cleavers (Galium aparine L.), Ga; experiment: as above; settings: dosage 5 kg/ha
Description: as §2, with “judged.” for “judged. At the same time, phytotoxicity to soybean plant and wheat was investigated and judged according to the criterion mentioned below.”

[13] = test system: cocklebur (Xanthium strumarium L.), Xs; experiment: as above; settings: dosage 5 kg/ha
Description: as §2, with “judged.” for “judged. At the same time, phytotoxicity to soybean plant and wheat was investigated and judged according to the criterion mentioned below.”

[14] = test system: barnyard grass (Echinochloa crus-galli Beauv.), Ec; experiment: as above; settings: dosage 5 kg/ha
Description: as §2, with “judged.” for “judged. At the same time, phytotoxicity to soybean plant and wheat was investigated and judged according to the criterion mentioned below.”

[15] = test system: barnyard grass (Echinochloa crus-galli Beauv.); experiment: Test Example 2: herbicidal effect on paddy field weeds after emergence; settings: Dosage 5 kg/ha; one-leaved stage; 21 days after treatment
Description: (§4) Test for Herbicidal Effect on Paddy Field Weeds After Emergence. Soil was filled into 1/10000 are pots and brought into a state of paddy field, in which seeds of barnyard grass (Echinochloa crus-galli Beauv.), bulrush (Scirpus juncoides Roxb.) and monochoria (Monochoria vaginalis Presl) were made to reach one-leaved stage. The soil in the pots were treated with a solution containing a predetermined dosage of a chemical agent comprising a compound of the present invention listed in Tables 1 to 14. Twenty one days after the treatment, the herbicidal effect was investigated and the result was compared with that in untreated plot to calculate the weed-controlling rate, and the herbicidal effect was judged according to the same criterion as in Test Example 1.

[16] = test system: monochoria (Monochoria vaginalis Presl); experiment: as above; settings: Dosage 5 kg/ha; one-leaved stage; 21 days after treatment
Description: as §4

[17] = test system: bulrush (Scirpus juncoides Roxb.); experiment: as above; settings: Dosage 5 kg/ha; one-leaved stage; 21 days after treatment
Description: as §4

| Compound | Phytotoxicity So (soybean plant) | Phytotoxicity Wh (wheat) | Phytotoxicity So (soybean plant (So)) | Phytotoxicity Wh (wheat (Wh)) | Herbicidal effect Am [1] | Herbicidal effect Vp [2] | Herbicidal effect At [3] | Herbicidal effect Ga [4] | Herbicidal effect Xs [5] | Herbicidal effect Ec [6] | Pre-emergence treatment Barnyard grass (herbicidal effect) [7] | Pre-emergence treatment Bulrush (herbicidal effect) [8] | Herbicidal effect Am [9] | Herbicidal effect Vp [10] | Herbicidal effect At [11] | Herbicidal effect Ga [12] | Herbicidal effect Xs [13] | Herbicidal effect Ec [14] | Post-emergence treatment Barnyard grass (herbicidal effect) [15] | Post-emergence treatment Monochoria (herbicidal effect) [16] | other results |
| --- | --- | --- | --- | --- | --- | --- | --- | --- | --- | --- | --- | --- | --- | --- | --- | --- | --- | --- | --- | --- | --- |
| CCc1ccc(Cl)c(CC)c1NC(=O)c1cc2ccccc2nc1C(=O)NC [359-1] | 3 (Crop-killing rate is 70-89%.) | 2 (Crop-killing rate is 40-69%.) | 0 (Crop-killing rate is 0-20% (No Phytotoxicity).) | 0 (Crop-killing rate is 0-20% (No Phytotoxicity).) | 5 (Weed-killing rate is 100%.) | 5 (Weed-killing rate is 100%.) | 5 (Weed-killing rate is 100%.) | 5 (Weed-killing rate is 100%.) | 5 (Weed-killing rate is 100%.) | 5 (Weed-killing rate is 100%.) | 5 (Weed-killing rate is 100%.) | 5 (Weed-killing rate is 100%.) | 5 (Weed-killing rate is 100%.) | 5 (Weed-killing rate is 100%.) | 5 (Weed-killing rate is 100%.) | 5 (Weed-killing rate is 100%.) | 5 (Weed-killing rate is 100%.) | 5 (Weed-killing rate is 100%.) | 5 (Weed-killing rate is 100%.) | 5 (Weed-killing rate is 100%.) | Post-emergence treatment Bulrush (herbicidal effect) [17]: 5 (Weed-killing rate is 100%.) |
| CCNC(=O)c1nc2ccccc2cc1C(=O)Nc1c(CC)ccc(Cl)c1CC [359-2] | 4 (Crop-killing rate is 90-99%.) | 3 (Crop-killing rate is 70-89%.) | 1 (Crop-killing rate is 1-39%.) | 0 (Crop-killing rate is 0-20% (No Phytotoxicity).) | 5 (Weed-killing rate is 100%.) | 5 (Weed-killing rate is 100%.) | 5 (Weed-killing rate is 100%.) | 5 (Weed-killing rate is 100%.) | 5 (Weed-killing rate is 100%.) | 5 (Weed-killing rate is 100%.) | 5 (Weed-killing rate is 100%.) | 5 (Weed-killing rate is 100%.) | 5 (Weed-killing rate is 100%.) | 5 (Weed-killing rate is 100%.) | 5 (Weed-killing rate is 100%.) | 5 (Weed-killing rate is 100%.) | 5 (Weed-killing rate is 100%.) | 5 (Weed-killing rate is 100%.) | 5 (Weed-killing rate is 100%.) | 5 (Weed-killing rate is 100%.) | Post-emergence treatment Bulrush (herbicidal effect) [17]: 5 (Weed-killing rate is 100%.) |
| CCCNC(=O)c1nc2ccccc2cc1C(=O)Nc1c(CC)ccc(Cl)c1CC [359-3] | 3 (Crop-killing rate is 70-89%.) | 2 (Crop-killing rate is 40-69%.) | 0 (Crop-killing rate is 0-20% (No Phytotoxicity).) | 0 (Crop-killing rate is 0-20% (No Phytotoxicity).) | 5 (Weed-killing rate is 100%.) | 5 (Weed-killing rate is 100%.) | 5 (Weed-killing rate is 100%.) | 5 (Weed-killing rate is 100%.) | 5 (Weed-killing rate is 100%.) | 5 (Weed-killing rate is 100%.) | 5 (Weed-killing rate is 100%.) | 5 (Weed-killing rate is 100%.) | 5 (Weed-killing rate is 100%.) | 5 (Weed-killing rate is 100%.) | 5 (Weed-killing rate is 100%.) | 5 (Weed-killing rate is 100%.) | 5 (Weed-killing rate is 100%.) | 5 (Weed-killing rate is 100%.) | 5 (Weed-killing rate is 100%.) | 5 (Weed-killing rate is 100%.) | Post-emergence treatment Bulrush (herbicidal effect) [17]: 5 (Weed-killing rate is 100%.) |
| CCc1ccc(Cl)c(CC)c1NC(=O)c1cc2ccccc2nc1C(=O)NC(C)(C)C [359-4] | 4 (Crop-killing rate is 90-99%.) | 2 (Crop-killing rate is 40-69%.) | 2 (Crop-killing rate is 40-69%.) | 0 (Crop-killing rate is 0-20% (No Phytotoxicity).) | 5 (Weed-killing rate is 100%.) | 5 (Weed-killing rate is 100%.) | 5 (Weed-killing rate is 100%.) | 5 (Weed-killing rate is 100%.) | 5 (Weed-killing rate is 100%.) | 5 (Weed-killing rate is 100%.) | 5 (Weed-killing rate is 100%.) | 5 (Weed-killing rate is 100%.) | 5 (Weed-killing rate is 100%.) | 5 (Weed-killing rate is 100%.) | 5 (Weed-killing rate is 100%.) | 5 (Weed-killing rate is 100%.) | 5 (Weed-killing rate is 100%.) | 5 (Weed-killing rate is 100%.) | 5 (Weed-killing rate is 100%.) | 5 (Weed-killing rate is 100%.) | Post-emergence treatment Bulrush (herbicidal effect) [17]: 5 (Weed-killing rate is 100%.) |
| CCc1ccc(Cl)c(CC)c1NC(=O)c1cc2ccccc2nc1C(=O)NCC(C)(C)C [359-5] | 2 (Crop-killing rate is 40-69%.) | 3 (Crop-killing rate is 70-89%.) | 0 (Crop-killing rate is 0-20% (No Phytotoxicity).) | 0 (Crop-killing rate is 0-20% (No Phytotoxicity).) | 5 (Weed-killing rate is 100%.) | 5 (Weed-killing rate is 100%.) | 5 (Weed-killing rate is 100%.) | 5 (Weed-killing rate is 100%.) | 5 (Weed-killing rate is 100%.) | 5 (Weed-killing rate is 100%.) | 5 (Weed-killing rate is 100%.) | 5 (Weed-killing rate is 100%.) | 5 (Weed-killing rate is 100%.) | 5 (Weed-killing rate is 100%.) | 5 (Weed-killing rate is 100%.) | 5 (Weed-killing rate is 100%.) | 5 (Weed-killing rate is 100%.) | 5 (Weed-killing rate is 100%.) | 5 (Weed-killing rate is 100%.) | 5 (Weed-killing rate is 100%.) | Post-emergence treatment Bulrush (herbicidal effect) [17]: 5 (Weed-killing rate is 100%.) |
